In ChEMBL document CHEMBL3525998, “Metabolism of saikosaponin a in rats: diverse oxidations on the aglycone moiety in liver and intestine in addition to hydrolysis of glycosidic bonds” (Drug Metab Dispos, 2013):

What was measured:
Assay type in all cases: ADME, organism-based
Plasma [1] = test: Drug level in Sprague-Dawley rat plasma treated with saikosaponin a at 50 mg/kg, po administered through gavage by LC-DAD-IT-TOF-MS analysis; set-up: dose 50 mg/kg, route oral; conditions: in vivo
[2] = Drug excretion in Sprague-Dawley rat urine treated with saikosaponin a at 15 mg/kg, iv by LC-DAD-IT-TOF-MS analysis; set-up: dose 15 mg/kg, route intravenous; conditions: in vivo
[3] = Drug excretion in Sprague-Dawley rat urine treated with saikosaponin a at 50 mg/kg, po administered through gavage by LC-DAD-IT-TOF-MS analysis; set-up: dose 50 mg/kg, route oral; conditions: in vivo
Rattus norvegicus = species: Rattus norvegicus; test: Drug level in Sprague-Dawley rat assessed as retention time treated with saikosaponin a by LC-DAD-IT-TOF-MS analysis
[4] = Drug excretion in Sprague-Dawley rat feces treated with saikosaponin a at 50 mg/kg, po administered through gavage by LC-DAD-IT-TOF-MS analysis; set-up: dose 50 mg/kg, route oral; conditions: in vivo
Plasma [5] = test: Drug level in Sprague-Dawley rat plasma treated with saikosaponin a at 15 mg/kg, iv by LC-DAD-IT-TOF-MS analysis; set-up: dose 15 mg/kg, route intravenous; conditions: in vivo
[6] = Drug excretion in Sprague-Dawley rat bile treated with saikosaponin a at 50 mg/kg, po administered through gavage by LC-DAD-IT-TOF-MS analysis; set-up: dose 50 mg/kg, route oral; conditions: in vivo
[7] = Drug recovery in po dosed rat excreted feces measured over 0 to 24 hrs after drug administration by HPLC analysis relative to starting drug dose; conditions: faeces, read-out: Drug recovery
[8] = Drug excretion in Sprague-Dawley rat feces treated with saikosaponin a at 15 mg/kg, iv by LC-DAD-IT-TOF-MS analysis; set-up: dose 15 mg/kg, route intravenous; conditions: in vivo
[9] = Drug excretion in Sprague-Dawley rat bile treated with saikosaponin a at 15 mg/kg, iv by LC-DAD-IT-TOF-MS analysis; set-up: dose 15 mg/kg, route intravenous; conditions: in vivo

| SMILES | Drug metabolism (Plasma [1]) | Drug excretion [2] | Drug excretion [3] | Retention_time (Rattus norvegicus) | Drug excretion [4] | Drug metabolism (Plasma [5]) | Drug excretion [6] | dose excreted [7] | Drug excretion [8] | Drug excretion [9] |
| --- | --- | --- | --- | --- | --- | --- | --- | --- | --- | --- |
| CC1(C)CC[C@]23CO[C@@]4(C=C[C@@H]5[C@@]6(C)CCC(=O)[C@@](C)(CO)[C@@H]6CC[C@@]5(C)[C@]4(C)C[C@@H]2O)[C@@H]3C1 |  |  | metabolite_detected | 52.3 min | metabolite_detected |  |  |  |  |  |
| C[C@H]1O[C@@H](O[C@H]2CC[C@@]3(C)[C@@H](CC[C@]4(C)[C@@H]3CC=C3[C@@H]5CC(C)(C)CC[C@]5(CO)[C@@H](O)C[C@]34C)[C@]2(C)CO)[C@H](O)[C@@H](O[C@@H]2O[C@H](CO)[C@@H](O)[C@H](O)[C@H]2O)[C@H]1O |  |  |  | 22.9 min |  |  |  |  |  | metabolite_detected |
| CC1(C)CC[C@]23CO[C@@]4(C=C[C@@H]5[C@@]6(C)C=C[C@H](O)[C@@](C)(CO)[C@@H]6CC[C@@]5(C)[C@]4(C)C[C@@H]2O)[C@@H]3C1 |  |  | metabolite_detected | 53.7 min | metabolite_detected |  |  |  |  |  |

Results, then the compound that gave them:

| Drug metabolism (Plasma [1]) | Drug excretion [2] | Drug excretion [3] | Retention_time (Rattus norvegicus) | Drug excretion [4] | Drug metabolism (Plasma [5]) | Drug excretion [6] | dose excreted [7] | Drug excretion [8] | Drug excretion [9] | SMILES |
| --- | --- | --- | --- | --- | --- | --- | --- | --- | --- | --- |
| metabolite_detected | metabolite_detected | metabolite_detected | 45.5 min | metabolite_detected | metabolite_detected | metabolite_detected | > 50% | metabolite_detected | metabolite_detected | C[C@H]1O[C@@H](O[C@H]2CC[C@@]3(C)[C@@H](CC[C@]4(C)[C@@H]3C=C[C@]35OC[C@@]6(CCC(C)(C)C[C@H]63)[C@@H](O)C[C@]54C)[C@]2(C)CO)[C@H](O)[C@@H](O)[C@H]1O |
|  |  | metabolite_detected | 18.4 min | metabolite_detected |  |  |  | metabolite_detected |  | CC1(C)CC[C@]23CO[C@@]4(C=C[C@@H]5[C@@]6(C)CC[C@H](O)[C@@](C)(CO)[C@@H]6CC[C@@]5(C)[C@]4(C(=O)O)C[C@@H]2O)[C@@H]3C1 |
|  |  | metabolite_detected | 48.3 min | metabolite_detected |  |  | > 50% | metabolite_detected |  | CC1(C)CC[C@]23CO[C@@]4(C=C[C@@H]5[C@@]6(C)CC[C@H](O)[C@@](C)(CO)[C@@H]6CC[C@@]5(C)[C@]4(C)C[C@@H]2O)[C@@H]3C1 |
